Data on 8 compounds can be found in ChEMBL document CHEMBL1157846, “Synthesis and theoretical studies on energetics of novel N- and O- perfluoroalkyl triazole tagged thienopyrimidines--their potential as adenosine receptor ligands” (Eur J Med Chem, 2010).

The target of assay [1] is Adenosine receptor A2a (Rattus norvegicus, UniProt P30543).
Description: Displacement of [3H]MSX-2 from adenosine A2A receptor in rat brain striatal membrane after 30 mins by scintillation counting
Assay [2] deals with T1, Adenosine receptor A1 (Rattus norvegicus, UniProt P25099).
T1 sequence (P25099 whole entry): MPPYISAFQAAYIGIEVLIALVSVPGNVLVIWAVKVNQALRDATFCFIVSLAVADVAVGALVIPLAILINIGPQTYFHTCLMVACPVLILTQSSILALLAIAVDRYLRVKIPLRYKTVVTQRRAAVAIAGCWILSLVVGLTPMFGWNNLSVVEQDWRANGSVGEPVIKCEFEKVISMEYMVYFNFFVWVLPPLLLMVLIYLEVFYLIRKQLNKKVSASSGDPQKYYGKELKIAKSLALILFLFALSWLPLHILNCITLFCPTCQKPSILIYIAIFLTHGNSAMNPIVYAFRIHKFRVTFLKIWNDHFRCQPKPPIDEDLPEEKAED
Description: Displacement of [3H]CCPA from adenosine A1 receptor in rat brain cortical membrane after 90 mins by scintillation counting

SMILES strings stand for the structures.

Sequence of Adenosine receptor A2a (P30543 whole entry): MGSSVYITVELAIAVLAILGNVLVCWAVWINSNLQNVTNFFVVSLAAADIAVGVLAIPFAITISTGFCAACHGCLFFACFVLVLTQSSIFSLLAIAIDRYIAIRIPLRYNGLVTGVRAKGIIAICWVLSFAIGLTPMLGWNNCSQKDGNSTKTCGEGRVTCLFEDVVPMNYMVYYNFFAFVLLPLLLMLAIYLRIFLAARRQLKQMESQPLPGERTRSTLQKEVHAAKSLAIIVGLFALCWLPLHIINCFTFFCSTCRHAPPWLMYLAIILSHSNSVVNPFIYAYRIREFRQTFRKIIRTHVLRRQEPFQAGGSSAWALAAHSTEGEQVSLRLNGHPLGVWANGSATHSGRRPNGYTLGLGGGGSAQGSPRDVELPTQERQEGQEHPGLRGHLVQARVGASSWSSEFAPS

Regarding `C#CCOc1nc(-c2ccccc2)nc2sc3c(c12)CCCC3`, the affinity in assay [1], expressed as Ki, was 3 nM.

Regarding `C#CCn1c(C)nc2sc(C)c(C)c2c1=O`, the inhibition constant Ki (in general, a dissociation constant, usually derived from enzyme kinetics or from competition with a known ligand) in assay [1] was 3790 nM; in assay [2] it was 6 nM.

In assay [1], `C#CCn1c(-c2ccccc2)nc2sc(C)c(C)c2c1=O` gave an inhibitory constant (Ki) of 29 nM.

On to `C#CCn1c(Cc2ccc(F)cc2)nc2sc3c(c2c1=O)CCCC3`, for which the Ki in assay [1] turned out to be 14 nM; in assay [2], 21 nM.

For the compound `C#CCn1c(Cc2ccc(F)cc2)nc2sc(C)c(C)c2c1=O`, the inhibition constant (Ki) was 7620 nM in assay [1] and 4 nM in assay [2].

`C#CCn1c(C)nc2sc3c(c2c1=O)CCC3`: the inhibition constant (Ki) in assay [1] came out at 18 nM; in assay [2] it was 6 nM.

`C#CCn1c(C)nc2sc3c(c2c1=O)CCCC3` returned an inhibitory constant (Ki) in assay [1] of 7 nM.

In the case of `C#CCn1c(-c2ccccc2)nc2sc3c(c2c1=O)CCC3`, the figures for the inhibitory constant (Ki) in assay [1] and in assay [2] were 9700 nM and 5 nM, respectively.
